Results: patent US7776846B2, “Enhancement of activity and/or duration of action of selected anti-inflammatory steroids for topical or other local application” (priority 2003, dated 2010)

Columns and labels:
[1] = tested on: forearm of a human volunteer; assay: Human vasoconstriction (blanching) testing, AUC through 18 hours; format: in vivo; conditions: for effect on the time period during which hydrocortisone displayed activity / effect on the vasoconstrictor activity of hydrocortisone: co-applied with hydrocortisone; for effect on the vasoconstrictor activity of hydrocortisone: molar ratio hydrocortisone:enhancer 1:5 to 1:1, particularly at the lower concentrations
Description: The combinations of the present invention have undergone human vasoconstriction, or blanching, testing. Such testing gives a reliable indication of local anti-inflammatory/glucocorticoid activity.
Test compounds at varying mM concentrations as noted below were dissolved in ethanol/propylene glycol (9/1) solution, and 20 μL of the mixtures were applied to filter paper discs, 0.7 cm in diameter. After ethanol evaporation, each disc was attached to waterproof adhesive tape, then applied to the forearm of a human volunteer and left in place for 4 hours. Groups of 6 forearms were tested at each concentration and the intensity of vasoconstriction was judged at 2, 4, 6, 8, 10, 12 and 18 hours after removal of the discs, except where otherwise indicated.
The grading scale for the vasoconstriction activity was as follows: 0, normal skin; 1, slight pallor of indistinct outline; 2, pallor with at least two corners outlined; 3, even pallor with a clear outline of the application sites; 4, very intense pallor. The scores were totaled at each concentration at each time after removal to give a total score at each time interval and an overall total for each concentration. The higher the total score, the greater the blanching or anti-inflammatory effect.
Tested in this manner were hydrocortisone, Δ^1-cortienic acid, the methyl ester of Δ^1-cortienic acid, a combination of hydrocortisone plus Δ^1-cortienic acid, and a combination of hydrocortisone plus the methyl ester of Δ^1-cortienic acid. The structures of the test compounds are shown below:
The data for Δ^1-CA alone and Δ^1-MeCA alone are from a group of 8 volunteers, rather than the 6 used for the other testing.

[2] = tested on: forearms of human volunteers; assay: Further human vasoconstriction testing, AUC through 24 hours; format: in vivo; conditions: for effect of increasing the ratio of (II) to (Ia/Ib) to about 2:1: HC 25 mM + enhancer 50 mM versus 1:1; for synergism with HC: ratios of HC:enhancer from 5:1 to 1:2; for AUC (sum of the individual vasoconstriction scores through 24 hours): total of 6 tests
Description: The objective of this study was to evaluate the effect of Δ^1-cortienic acid (Δ^1-CA) and the methyl ester of Δ^1-cortienic acid (Δ^1-MeCA) on the vasoconstriction effect of hydrocortisone (HC). The structures for HC, Δ^1-CA and Δ^1-MeCA are given above.
HC (50 mM), Δ^1-CA (0, 10, 25, 50 and 100 mM) and Δ^1-MeCA (0, 10, 25, 50 and 100 mM) were dissolved in a vehicle containing absolute ethanol and propylene glycol (9:1). The resultant HC solutions were mixed (1:1) with vehicle only, or with the Δ^1-CA or Δ^1-MeCA solutions, so that 25 mM of final HC solutions containing various concentrations of Δ^1-CA or Δ^1-MeCA (0 to 50 mM) were obtained. The resultant mixtures (20 μl) were loaded onto circular paper discs (7 mm diameter) that were attached to a water impervious adhesive film (3M). After evaporation of ethanol, the films were applied to the forearms of human volunteers for 4 hours.
Subsequently, the vasoconstriction reaction was judged by the appearance of pallor at various time intervals after the removal of the discs and films (2, 4, 6, 8, 10, 12, 18 and 24 hours after removal). The grading scale was as follows: 0, normal skin; 1, slight pallor; 2, pallor with at least two corners outlined; 3, even pallor with a clear outline of the application sites; 4, very intense pallor. Due to the relatively high variations in response between volunteers, the total score of 6 tests at each time period was taken for the activity evaluation. As before, an overall total for each concentration was obtained. The results were as follows, where AUC was estimated at the sum of the individual scores through 24 hours.

[3] = tested on: forearms of human volunteers; assay: as above; format: in vivo; conditions: enhancing agent alone, 0.5-50 mM
[4] = biological target: T1, receptor ([3H]-triamcinolone acetonide as tracer) (Rattus norvegicus, UniProt P06536); conditions: medium containing 10^−5M cortienic acid as competitor; cited from earlier work
T1 sequence (P06536 1-795): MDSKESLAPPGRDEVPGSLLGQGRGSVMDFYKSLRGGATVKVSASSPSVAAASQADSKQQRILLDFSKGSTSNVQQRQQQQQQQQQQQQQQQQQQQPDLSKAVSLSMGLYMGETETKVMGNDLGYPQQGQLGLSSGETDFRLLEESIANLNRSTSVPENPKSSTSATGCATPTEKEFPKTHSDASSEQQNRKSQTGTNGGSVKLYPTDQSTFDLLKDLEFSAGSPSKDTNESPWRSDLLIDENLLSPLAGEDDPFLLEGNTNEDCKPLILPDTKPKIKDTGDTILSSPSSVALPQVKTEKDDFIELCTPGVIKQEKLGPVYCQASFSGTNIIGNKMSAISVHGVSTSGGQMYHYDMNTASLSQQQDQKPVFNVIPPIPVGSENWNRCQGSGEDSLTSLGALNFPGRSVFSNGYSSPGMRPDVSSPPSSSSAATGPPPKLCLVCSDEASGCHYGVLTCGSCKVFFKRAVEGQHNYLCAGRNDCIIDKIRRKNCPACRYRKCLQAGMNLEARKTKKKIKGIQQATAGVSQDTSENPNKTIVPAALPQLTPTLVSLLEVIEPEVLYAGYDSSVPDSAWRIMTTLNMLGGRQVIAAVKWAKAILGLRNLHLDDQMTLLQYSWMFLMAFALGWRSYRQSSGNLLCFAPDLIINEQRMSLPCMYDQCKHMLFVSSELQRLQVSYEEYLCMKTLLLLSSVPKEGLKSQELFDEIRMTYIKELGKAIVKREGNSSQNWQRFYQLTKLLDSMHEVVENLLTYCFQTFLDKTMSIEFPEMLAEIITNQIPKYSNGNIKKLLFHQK

[5] = enhancing agent alone, 0.5 mM, group of 8 volunteers
[6] = enhancing agent alone, 2.5 mM, group of 8 volunteers
[7] = enhancing agent alone, 5 mM, group of 8 volunteers
[8] = enhancing agent alone, 25 mM, group of 8 volunteers
[9] = enhancing agent alone, 50 mM, group of 8 volunteers

| SMILES | effect on the time period during which hydrocortisone displayed activity [1] | effect on the vasoconstrictor activity of hydrocortisone [1] | AUC (sum of the individual vasoconstriction scores through 18 hours) [1, 5] | AUC (sum of the individual vasoconstriction scores through 18 hours) [1, 6] | AUC (sum of the individual vasoconstriction scores through 18 hours) [1, 7] | AUC (sum of the individual vasoconstriction scores through 18 hours) [1, 8] | AUC (sum of the individual vasoconstriction scores through 18 hours) [1, 9] | vasoconstriction activity when tested alone [1] | effect of increasing the ratio of (II) to (Ia/Ib) to about 2:1 [2] | effect on the vasoconstriction activity of HC ([2]; co-applied with HC 25 mM) | synergism with HC [2] | AUC (sum of the individual vasoconstriction scores) [3] | other results |
| --- | --- | --- | --- | --- | --- | --- | --- | --- | --- | --- | --- | --- | --- |
| COC(=O)[C@@]1(O)CCC2C3CCC4=CC(=O)C=CC4(C)C3C(O)CC21C (stereo partly drawn) [Δ^1-Cortienic Acid Methyl Ester, methyl 11β,17α-dihydroxyandrosta-1,4-dien-3-one-17β-carboxylate] | able to extend the time period | enhanced the vasoconstrictor activity of hydrocortisone | 0 | 0 | 0 | 0 | 0 | neither Δ^1-cortienic acid nor Δ^1-cortienic acid methyl ester had any vasoconstriction activity | does not appear to add any significant benefit | increased the vasoconstriction activity of HC | synergistic results | 0 | time after which pallor could still be detected in one arm ([2]; co-applied with HC): ≥ 5 days; increasing activity and duration compared with Δ^1-CA ([2]; co-applied with HC 25 mM): higher increasing activity and longer duration |
| CC12C=CC(=O)C=C1CCC1C2C(O)CC2(C)C1CC[C@]2(O)C(=O)O (stereo partly drawn) [Δ^1-Cortienic Acid, 11β,17α-dihydroxyandrosta-1,4-dien-3-one-17β-carboxylic acid] | able to extend the time period | enhanced the vasoconstrictor activity of hydrocortisone | 0 | 0 | 0 | 0 | 0 | neither Δ^1-cortienic acid nor Δ^1-cortienic acid methyl ester had any vasoconstriction activity | appears to decrease activity | increased the vasoconstriction activity of HC | synergistic results | 0 | – |
| C[C@]12CCC(=O)C=C1CC[C@@H]1[C@@H]2[C@@H](O)C[C@@]2(C)[C@H]1CC[C@]2(O)C(=O)CO [Hydrocortisone, hydrocortisone, reference compound] | – | – | – | – | – | – | – | exhibited activity | – | – | – | – | time after removal of the disc by which activity was nearly gone ([1]; hydrocortisone alone): ~12 h; AUC (sum of the individual vasoconstriction scores through 18 hours) ([1]; hydrocortisone alone, 1 mM (0.036% by weight), 20 μL on disc, 4 hours, 6 forearms): 0; AUC (sum of the individual vasoconstriction scores through 18 hours) ([1]; hydrocortisone alone, 2 mM (0.073%), 6 forearms): 0; AUC (sum of the individual vasoconstriction scores through 18 hours) ([1]; hydrocortisone alone, 5 mM (0.181%), 6 forearms): 0; AUC (sum of the individual vasoconstriction scores through 18 hours) ([1]; hydrocortisone alone, 10 mM (0.363%), 6 forearms): 3; AUC (sum of the individual vasoconstriction scores through 18 hours) ([1]; hydrocortisone alone, 25 mM (0.906%), 6 forearms): 5; AUC (sum of the individual vasoconstriction scores through 18 hours) ([1]; hydrocortisone alone, 50 mM (1.81%), 6 forearms): 18; AUC (sum of the individual vasoconstriction scores through 24 hours) ([2]; HC 25 mM + Δ^1-CA 0 mM (HC alone, Δ^1-CA series)): 14; AUC (sum of the individual vasoconstriction scores through 24 hours) ([2]; HC 25 mM + Δ^1-MeCA 0 mM (HC alone, Δ^1-MeCA series)): 33 |
| CCOC(=O)O[C@]1(C(=O)OCCl)CC[C@H]2[C@@H]3CCC4=CC(=O)C=C[C@]4(C)[C@H]3[C@@H](O)C[C@@]21C [loteprednol, loteprednol etabonate] | – | – | – | – | – | – | – | – | – | – | – | – | intrinsic activity in receptor binding [4]: intrinsically active |
